Where no end group is shown, it is not given here.
Columns and labels:
NEP = NEP (Homo sapiens, UniProt P08473); conditions: NEP digestion for 2.5 minutes in vitro; Cys6-Phe7 and Gly8-Leu9 slightly most labile
[1] = clearance by NEP and NPR-C; cited from earlier work
NPR-B [2] = target: T1, NPR-B (Homo sapiens, UniProt P20594); conditions: read-out: affinity to NPR-B; cited from earlier work
T1 sequence (P20594 23-1047): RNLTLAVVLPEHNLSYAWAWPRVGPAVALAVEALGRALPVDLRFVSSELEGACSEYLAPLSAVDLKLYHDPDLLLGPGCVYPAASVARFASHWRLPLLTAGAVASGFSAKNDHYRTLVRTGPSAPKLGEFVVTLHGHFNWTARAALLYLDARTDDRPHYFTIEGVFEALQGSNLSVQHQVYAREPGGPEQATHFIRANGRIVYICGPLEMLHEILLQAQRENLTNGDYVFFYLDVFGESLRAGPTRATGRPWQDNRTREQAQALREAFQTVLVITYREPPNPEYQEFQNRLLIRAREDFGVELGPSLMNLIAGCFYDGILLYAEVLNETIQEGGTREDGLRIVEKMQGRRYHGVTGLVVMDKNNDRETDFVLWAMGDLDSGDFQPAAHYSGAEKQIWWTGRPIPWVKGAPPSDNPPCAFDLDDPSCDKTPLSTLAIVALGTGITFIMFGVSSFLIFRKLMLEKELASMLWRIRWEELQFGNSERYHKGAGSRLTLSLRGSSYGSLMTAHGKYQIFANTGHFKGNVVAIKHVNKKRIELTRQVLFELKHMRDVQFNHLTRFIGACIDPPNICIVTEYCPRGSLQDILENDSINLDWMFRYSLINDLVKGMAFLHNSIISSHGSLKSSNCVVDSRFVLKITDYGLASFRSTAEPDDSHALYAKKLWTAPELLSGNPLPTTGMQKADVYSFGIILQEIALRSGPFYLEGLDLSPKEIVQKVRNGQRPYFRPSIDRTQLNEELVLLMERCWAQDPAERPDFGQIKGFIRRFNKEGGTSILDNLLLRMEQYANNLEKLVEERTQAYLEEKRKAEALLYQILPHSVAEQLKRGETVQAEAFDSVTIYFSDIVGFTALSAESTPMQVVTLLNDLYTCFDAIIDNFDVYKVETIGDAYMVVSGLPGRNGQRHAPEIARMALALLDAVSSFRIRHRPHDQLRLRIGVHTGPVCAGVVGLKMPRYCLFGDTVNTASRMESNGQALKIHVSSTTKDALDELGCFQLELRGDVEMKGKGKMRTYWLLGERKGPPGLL

NPR-C = NPR-C (Homo sapiens, UniProt P17342); conditions: read-out: affinity to NPR-C; cited from earlier work
NPR-B [3] = target: T1, NPR-B; conditions: cited from earlier work
[4] = system: medial meniscal tear-induced osteoarthritis; assay: Rat medial meniscal tear osteoarthritis model, knee histopathology (Example 1, IA dosing from Day 7); assay type: in vivo; conditions: for cartilage degeneration in the tibia: 3x/week for 3 weeks from Day 7, vs control rats
Protocol: A unilateral medial meniscal tear in 275-300 gram rats will result in rapidly progressive cartilage degeneration—characterized by chondrocyte and proteoglycan loss, fibrillation, osteophyte formation, and chondrocyte cloning. This model is performed by transection of the medial collateral ligament just below its attachment to the meniscus so that when the joint space opens, the meniscus is reflected toward the femur. The meniscus is cut at its narrowest point (away from the ossicles) taking care not to damage the tibial surface and making sure that the resulting transection produces separate, freely movable anterior and posterior meniscus halves.
Progressive cartilage degenerative changes occur and by 3-6 weeks post-surgery, tibial cartilage degeneration may be focally severe on the outer ⅓ of the tibia with degenerative changes of lesser severity in the middle and inner ⅓. Osteophytes are ultimately quite large (medial tibia) and progressively increase in size. The model is progressive and results in total cartilage loss (to eburnated bone) in […] in virtually all rats, with lesions that are reasonably consistent. […] Due to the rapid progression of cartilage degeneration, protective effects are not always apparent in the outer ⅓ of the tibial cartilage, although zonal analysis may reveal effects of treatment in the middle and inner ⅓. Substantial subchondral and epiphyseal bone changes occur in the medial tibia subjacent to the areas of greatest lesion severity. These range in magnitude and type from increased basophilia of the calcified cartilage layer with small fractures into subchondral bone to overt collapse of articular cartilage into areas of bone resorption in the epiphysis with surrounding sclerosis of bone. Therefore, this model offers the opportunity to evaluate not only chondroprotective effects of agents but also bone preserving activities. The model is of relatively short duration and animals are very consistent in their response to the surgery.
(§1) This rat model was used to determine the effect of CNP variants on slowing or repairing cartilage damage in osteoarthritis, where the CNP is delivered in response to joint injury or trauma. In this model a tear was introduced into the meniscus to provoke joint injury which results in cartilage degeneration and osteoarthritis (Janusz et al., Osteoarthritis Cartilage, 10:785-791, 2002). Male Lewis rats received a unilateral medial meniscectomy on Day 0; administration of control vehicle or the CNP variant Gly-CNP-37 began on Day 7; and the animals were euthanized on Day 29 for histopathological analysis of the affected joints. […] Therapeutic efficacy was evaluated by gait analysis and histopathological examination of chondrocyte death/cartilage degeneration in the knee.
In particular, surgery animals were anesthetized with isoflurane and the right knee and lower leg area were prepared for surgery. For the meniscal tear, a skin incision was made over the medial aspect of the knee and the medial collateral ligament was transected after being exposed by blunt dissection. The medial meniscus was cut through the full thickness to simulate a complete tear and the wound closed. Ninety minutes (90 min) post-surgery, animals were treated with a dose of Acetaminophen (100 mg/kg, PO) in 1% CMC (2 mL/kg, 50 mg/mL). A follow-on dose was given 24 hours post-surgery (as needed).
For histopathological analysis the operated joints were harvested from the euthanized rats. Following 4-6 days in 5% formic acid decalcifier, the operated joints are cut into two approximately equal halves in the frontal plane and embedded in paraffin. Sections were cut from each operated right knee at approximately 160 μm steps and stained with toluidine blue. […]

[5] = system: medial meniscal tear-induced osteoarthritis; assay: Gait analysis in rat meniscal tear osteoarthritis model (Example 1); assay type: in vivo
Description: as §1
Gait analysis was performed by applying ink to the ventral surface of the foot and documenting weight bearing during movement (footprints) across paper. Rear feet of rats were placed in ink and then rats were placed on paper and allowed to walk the full length. Gait was scored visually using the criteria in Table 5 (descriptions refer to diseased/affected leg).

[6] = system: medial meniscal tear-induced osteoarthritis; assay: Rat medial meniscal tear osteoarthritis model, knee histopathology (Example 2, IA or SC); assay type: in vivo

Sequence of NEP (P08473 whole entry): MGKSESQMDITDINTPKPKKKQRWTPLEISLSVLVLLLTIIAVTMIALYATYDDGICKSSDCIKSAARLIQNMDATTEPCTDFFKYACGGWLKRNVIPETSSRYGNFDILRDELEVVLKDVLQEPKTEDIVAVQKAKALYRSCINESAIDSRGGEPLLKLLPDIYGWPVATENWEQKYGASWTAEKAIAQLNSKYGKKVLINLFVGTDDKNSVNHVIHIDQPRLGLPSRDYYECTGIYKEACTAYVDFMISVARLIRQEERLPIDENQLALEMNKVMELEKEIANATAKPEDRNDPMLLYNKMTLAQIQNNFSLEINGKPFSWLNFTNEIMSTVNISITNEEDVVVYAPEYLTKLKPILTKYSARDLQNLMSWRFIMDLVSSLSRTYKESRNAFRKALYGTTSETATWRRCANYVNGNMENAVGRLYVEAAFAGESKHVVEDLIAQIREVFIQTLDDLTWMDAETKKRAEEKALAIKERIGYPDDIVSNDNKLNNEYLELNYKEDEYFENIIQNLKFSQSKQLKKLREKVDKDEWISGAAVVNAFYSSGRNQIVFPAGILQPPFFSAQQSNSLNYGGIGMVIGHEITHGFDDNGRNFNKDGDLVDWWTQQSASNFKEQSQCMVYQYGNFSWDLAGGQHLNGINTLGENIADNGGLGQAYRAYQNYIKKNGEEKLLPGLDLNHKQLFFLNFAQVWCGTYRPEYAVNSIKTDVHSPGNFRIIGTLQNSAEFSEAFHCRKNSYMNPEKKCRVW
Sequence of NPR-C (P17342 27-541, species assumed): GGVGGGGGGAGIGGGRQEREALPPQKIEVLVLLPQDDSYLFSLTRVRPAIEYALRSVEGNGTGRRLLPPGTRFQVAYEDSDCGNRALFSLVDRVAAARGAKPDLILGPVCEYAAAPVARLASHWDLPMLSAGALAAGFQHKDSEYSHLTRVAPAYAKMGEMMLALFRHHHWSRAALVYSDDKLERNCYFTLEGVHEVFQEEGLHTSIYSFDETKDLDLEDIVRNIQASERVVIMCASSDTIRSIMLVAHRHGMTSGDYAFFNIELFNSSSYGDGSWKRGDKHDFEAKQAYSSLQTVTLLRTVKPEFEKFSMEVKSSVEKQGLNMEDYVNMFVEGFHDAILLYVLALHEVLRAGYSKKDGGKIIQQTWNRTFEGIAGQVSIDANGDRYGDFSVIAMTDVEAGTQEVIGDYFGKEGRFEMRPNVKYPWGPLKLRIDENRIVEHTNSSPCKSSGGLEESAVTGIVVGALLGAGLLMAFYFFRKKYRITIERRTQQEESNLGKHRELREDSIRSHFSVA

Compound: CC[C@H](C)[C@@H]1NC(=O)[C@H](CCCNC(=N)N)NC(=O)[C@H](CC(=O)O)NC(=O)[C@H](CC(C)C)NC(=O)[C@H](CCCCN)NC(=O)[C@H](CC(C)C)NC(=O)CNC(=O)[C@H](Cc2ccccc2)NC(=O)[C@@H](NC(=O)CNC(=O)[C@H](CCCCN)NC(=O)[C@H](CO)NC(=O)[C@H](CC(C)C)NC(=O)CN)CSSC[C@@H](C(=O)O)NC(=O)CNC(=O)[C@H](CC(C)C)NC(=O)CNC(=O)[C@H](CO)NC(=O)[C@H](CCSC)NC(=O)[C@H](CO)NC(=O)CNC1=O [CNP-22]
- hydrolysis of NEP cleavage sites (NEP): all possible sites were unexpectedly hydrolyzed
- half-life [1]: ~2.6 min
- Kd (NPR-B [2]): 0.007 to 0.03 nM
- Kd (NPR-C): 0.011 to 0.14 nM

Compound: G19R mutation in CNP22: CNP22 with a G19R substitution (GLSKGCFGLKLDRIGSMSRLGC; ends and bridges not checked; cysteine pairing not given here; UniProt P23582 105-126, looked up, variant G19R)
- NPR-B signaling activity (NPR-B [3]): does not result in a significant loss

Compound: GQEHPNARKYKGANKKGLSKGCFGLKLDRIGSMSGLGC (ends and bridges not checked; cysteine pairing not given here) [Gly-CNP-37]
- medial growth plate thickness ([4]; 35.5 μg IA): a reduction in medial thickness, but not a significant reduction
- Total Joint Score without Femur ([4]; 35.5 μg/dose IA): improved Total Joint Score without Femur, albeit to a lesser extent as compared to the higher dose
- damage to the calcified cartilage and subchondral bone ([4]; 35.5 μg/dose IA): reduced damage to the calcified cartilage and subchondral bone, but to a lesser extent than the higher dose
- cartilage degeneration in the tibia ([4]; 35.5 μg/dose IA): significant reduction
- medial growth plate thickness ([4]; 110 μg IA): significantly reduced
- Total Joint Score without Femur ([4]; 110 μg/dose IA): significantly reduced
- cartilage degeneration in the tibia ([4]; 110 μg/dose IA): significant reduction
- reduction of tibial osteophyte measurement ([4]; 110 μg/dose IA, p<0.05): approximately 24%
- reduction of tibial osteophyte score ([4]; 110 μg/dose IA, p<0.05): approximately 34%
- damage to the calcified cartilage and subchondral bone, score ([4]; 110 μg/dose IA, vehicle approximately 2.4): ~1.3
- improvement in substantial tibial cartilage degeneration (width) ([4]; Gly-CNP-37 treated animals (IA)): greater than 50%
- depth ratio (lesion depth / total depth), medial tibia ([4]; Gly-CNP-37 treated groups (IA) vs vehicle): improved
- Total Joint Score with Femur ([4]; both doses IA): decreases total joint score at both doses, but not to a significant level
- medial tibial subchondral/epiphyseal trabecular bone thickening/sclerosis ([4]; both doses IA vs vehicle, not significant): observable decrease
- growth plate thickness, medial minus lateral difference ([4]; higher dose IA): significantly reduced
- collagen damage across the medial tibial plateau ([4]; lower and higher doses IA vs untreated controls): fewer areas with severe, marked and moderate degeneration
- growth plate thickness, medial minus lateral difference ([4]; lower dose IA): reduced thickness of the growth plate, but not to the same extent as the higher dose
- width of the cartilage affected by any degeneration ([4]; treated groups (IA) vs vehicle): improved
- gait score Area Under the Curve (AUC) ([5]; higher dose IA): gait score being lower for both treated populations as compared to the untreated controls
- mobility and gait (gait score) ([5]; higher or lower dose IA, approximately day 15 to day 28): improvement in mobility and gait
- gait score Area Under the Curve (AUC) ([5]; lower dose IA): decreased gait score to a greater extent than the higher CNP dose
- Total Joint Score without Femur ([6]; 105 μg IA): significant reduction
- effects on histopathology lesions of medial meniscal tear-induced osteoarthritis ([6]; IA, Pro-Gly-CNP-37 35.5 and 105 μg, Gly-CNP-37 105 μg): significant beneficial effects

— patent US12214015B2, “Use of c-type natriuretic peptide variants to treat osteoarthritis” (priority 2015, dated 2025)
